Data published in the supplement of paper PMC10307832.

Columns and labels:
Test in all cases: relative viability (nuclei count vs DMSO), 5 days (fraction); higher = more cells survive
[1] = system: NCI-H2228
In short: (§1)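 Medians of duplicate plates are given as relative viability. That measure is the nuclei count in treated wells divided by the count in vehicle wells. Counts were taken on 4× images of lung cancer cell lines in 1536-well plates, 5 days after pin-tool dosing the day after seeding with one drug alone or a fixed anchor-drug dose plus five library-drug doses (not always all listed) in √10 steps.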

[2] = system: NCI-H23
In short: as §1

[3] = system: LK-2
In short: as §1

[4] = system: PC-14
In short: as §1

[5] = system: HCC-44
In short: as §1

[6] = system: PC-3 [JPC-3]
In short: as §1

[7] = system: SW 900
In short: as §1

[8] = system: NCI-H596
In short: as §1

[9] = system: NCI-H2347
In short: as §1

[10] = system: SW 1573
In short: as §1

[11] = system: LCLC-103H
In short: as §1

[12] = system: NCI-H460
In short: as §1

[13] = system: A-427
In short: as §1

[14] = system: COR-L23
In short: as §1

[15] = system: NCI-H1650
In short: as §1

[16] = system: NCI-H727
In short: as §1

[17] = system: H3255
In short: as §1

[18] = system: NCI-H1793
In short: as §1

[19] = system: 201T
In short: as §1

[20] = system: LU99A
In short: as §1

[21] = system: LC-2-ad
In short: as §1

[22] = system: LCLC-97TM1
In short: as §1

## O=c1cc(-c2cccc3c2Sc2ccccc2S3)oc(N2CCOCC2)c1 + O=C(CCCCCCC(=O)Nc1ccccc1)NO [Vorinostat] (partner 1 µM)
[1]; first compound 0.08 µM
  relative viability: 0.824
[1]; first compound 0.253 µM
  relative viability: 0.646
[1]; first compound 0.8 µM
  relative viability: 0.76
[1]; first compound 2.53 µM
  relative viability: 0.7
[1]; first compound 8 µM
  relative viability: 0.578
[2]; first compound 0.08 µM
  relative viability: 0.477
[2]; first compound 0.253 µM
  relative viability: 0.593
[2]; first compound 0.8 µM
  relative viability: 0.669
[2]; first compound 2.53 µM
  relative viability: 0.543
[2]; first compound 8 µM
  relative viability: 0.516
[3]; first compound 0.08 µM
  relative viability: 0.261
[3]; first compound 0.253 µM
  relative viability: 0.327
[3]; first compound 0.8 µM
  relative viability: 0.369
[3]; first compound 2.53 µM
  relative viability: 0.287
[3]; first compound 8 µM
  relative viability: 0.358
[4]; first compound 0.08 µM
  relative viability: 0.734
[4]; first compound 0.253 µM
  relative viability: 0.879
[4]; first compound 0.8 µM
  relative viability: 0.685
[4]; first compound 2.53 µM
  relative viability: 0.628
[4]; first compound 8 µM
  relative viability: 0.701
[5]; first compound 0.08 µM
  relative viability: 1.13
[5]; first compound 0.253 µM
  relative viability: 1.05
[5]; first compound 0.8 µM
  relative viability: 1.17
[5]; first compound 2.53 µM
  relative viability: 1.05
[5]; first compound 8 µM
  relative viability: 1.08
[6]; first compound 0.08 µM
  relative viability: 0.579
[6]; first compound 0.253 µM
  relative viability: 0.788
[6]; first compound 0.8 µM
  relative viability: 0.769
[6]; first compound 2.53 µM
  relative viability: 0.79
[6]; first compound 8 µM
  relative viability: 0.851
[7]; first compound 0.253 µM
  relative viability: 0.529
[7]; first compound 0.8 µM
  relative viability: 0.493
[7]; first compound 2.53 µM
  relative viability: 0.427
[7]; first compound 8 µM
  relative viability: 0.393
[8]; first compound 0.08 µM
  relative viability: 0.51
[8]; first compound 0.253 µM
  relative viability: 0.749
[8]; first compound 0.8 µM
  relative viability: 0.585
[8]; first compound 2.53 µM
  relative viability: 0.575
[8]; first compound 8 µM
  relative viability: 0.717
[9]; first compound 0.08 µM
  relative viability: 0.606
[9]; first compound 0.253 µM
  relative viability: 0.609
[9]; first compound 0.8 µM
  relative viability: 0.548
[9]; first compound 2.53 µM
  relative viability: 0.499
[9]; first compound 8 µM
  relative viability: 0.46
[10]; first compound 0.08 µM
  relative viability: 0.702
[10]; first compound 0.253 µM
  relative viability: 0.933
[10]; first compound 0.8 µM
  relative viability: 1.01
[10]; first compound 2.53 µM
  relative viability: 0.771
[10]; first compound 8 µM
  relative viability: 0.907
[11]; first compound 0.08 µM
  relative viability: 0.757
[11]; first compound 0.253 µM
  relative viability: 0.814
[11]; first compound 0.8 µM
  relative viability: 0.66
[11]; first compound 2.53 µM
  relative viability: 0.727
[11]; first compound 8 µM
  relative viability: 0.864
[12]; first compound 0.08 µM
  relative viability: 0.892
[12]; first compound 0.253 µM
  relative viability: 1.49
[12]; first compound 0.8 µM
  relative viability: 0.772
[12]; first compound 2.53 µM
  relative viability: 0.692
[12]; first compound 8 µM
  relative viability: 1.04
[13]; first compound 0.08 µM
  relative viability: 0.863
[13]; first compound 0.253 µM
  relative viability: 0.931
[13]; first compound 0.8 µM
  relative viability: 0.897
[13]; first compound 2.53 µM
  relative viability: 0.834
[13]; first compound 8 µM
  relative viability: 0.829
[14]; first compound 0.08 µM
  relative viability: 0.472
[14]; first compound 0.253 µM
  relative viability: 0.457
[14]; first compound 0.8 µM
  relative viability: 0.397
[14]; first compound 2.53 µM
  relative viability: 0.442
[14]; first compound 8 µM
  relative viability: 0.446
[15]; first compound 0.08 µM
  relative viability: 0.535
[15]; first compound 0.253 µM
  relative viability: 0.643
[15]; first compound 0.8 µM
  relative viability: 0.602
[15]; first compound 2.53 µM
  relative viability: 0.502
[15]; first compound 8 µM
  relative viability: 0.556
[16]; first compound 0.08 µM
  relative viability: 1.01
[16]; first compound 0.253 µM
  relative viability: 1.29
[16]; first compound 2.53 µM
  relative viability: 1.09
[16]; first compound 8 µM
  relative viability: 1.24
[17]; first compound 0.08 µM
  relative viability: 0.811
[17]; first compound 0.253 µM
  relative viability: 0.78
[17]; first compound 0.8 µM
  relative viability: 0.805
[17]; first compound 2.53 µM
  relative viability: 0.878
[17]; first compound 8 µM
  relative viability: 0.896
[18]; first compound 0.08 µM
  relative viability: 0.653
[18]; first compound 0.253 µM
  relative viability: 0.846
[18]; first compound 0.8 µM
  relative viability: 0.541
[18]; first compound 2.53 µM
  relative viability: 0.627
[18]; first compound 8 µM
  relative viability: 0.804
[19]; first compound 0.08 µM
  relative viability: 0.919
[19]; first compound 0.253 µM
  relative viability: 1.05
[19]; first compound 0.8 µM
  relative viability: 0.976
[19]; first compound 2.53 µM
  relative viability: 0.912
[19]; first compound 8 µM
  relative viability: 0.884
[20]; first compound 0.08 µM
  relative viability: 0.429
[20]; first compound 0.253 µM
  relative viability: 0.499
[20]; first compound 0.8 µM
  relative viability: 0.639
[20]; first compound 2.53 µM
  relative viability: 0.514
[20]; first compound 8 µM
  relative viability: 0.669
[21]; first compound 0.08 µM
  relative viability: 0.683
[21]; first compound 0.253 µM
  relative viability: 0.835
[21]; first compound 0.8 µM
  relative viability: 0.684
[21]; first compound 2.53 µM
  relative viability: 0.695
[21]; first compound 8 µM
  relative viability: 0.69
[22]; first compound 0.08 µM
  relative viability: 0.638
[22]; first compound 0.253 µM
  relative viability: 0.927
[22]; first compound 0.8 µM
  relative viability: 0.803
[22]; first compound 2.53 µM
  relative viability: 0.602
[22]; first compound 8 µM
  relative viability: 1.06
